For 17 compounds, IC50 results are on record in patent US20110098309A1, “METHODS OF INHIBITING THE FORMATION OF AMYLOID-BETA DIFFUSABLE LIGANDS USING ACYLHYDRAZIDE COMPOUNDS” (priority 2007, published 2011).

A word on the IC50: it is the concentration that inhibits the measured activity by half. High values mean weaker potency, low ones greater potency.

Aβ1-42, sequence (P05067 672-713 limits assumed): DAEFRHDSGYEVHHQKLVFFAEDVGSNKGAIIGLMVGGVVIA

This test concerns the target Aβ1-42 (Homo sapiens, UniProt P05067). The test can be described thus: FRET assay of Aβ1-42 oligomer (ADDL) assembly inhibition. The note with it: 0.2 μM FITC-Aβ(1-42) and 0.8 μM Aβ(1-42), 37° C., six concentrations from about 10 μM to about 0.03 μM. Format: biochemical. The source says: Fluorescence (or Förster) Resonance Energy Transfer (FRET) is a distance-dependent, non-radiative transfer of energy in which the de-excitation of one fluorophore (donor) is coupled to excitation of another fluorophore (acceptor). FRET occurs if (1) the quantum of energy emitted by a donor fluorophore corresponds to an acceptor fluorophore's excitation energy, (2) the orientations of donor and acceptor transition dipoles are nearly parallel and (3) the donor fluorescent emission spectrum overlaps the acceptor absorption spectrum.
In this assay, assembly of Aβ1-42 oligomer formation is monitored by FRET using N-terminal conjugates of fluorescein-Aβ1-42 as both the donor and acceptor fluorophore (fluorescein-fluorescein Ro˜45 Å). […] Inhibition of Aβ1-42 assembly is observed as the absence or attenuation of fluorescein quenching.
FRET and FP assays are performed in 384-well Corning Non-Binding Surface, black, opaque microtiter plates, and the assay buffer consists of 25 mM MOPS-Tris (pH 8.0) with 100 mM MgCl2. The assay volume, containing 0.2 μM FITC-Aβ(1-42) and 0.8 μM Aβ(1-42), is 50 μl and the temperature is 37° C. […] Kinetic traces are collected by recording fluorescence intensity and polarization readings every five minutes over about a three hour time course. […] Positive control reactions contain all buffer components in the absence of added small molecule or antibody reagents. To test for ADDL assembly inhibition, the compound was incubated with the peptide mixture at six concentrations from about 10 μM decreasing to about 0.03 μM.
Regarding `COc1ccc(O)c(/C=N/NC(=O)c2cc(-c3ccc(Cl)s3)n[nH]2)c1` [Compound 107, 3-(5-chlorothiophen-2-yl)-N′-(2-hydroxy-5-methoxybenzylidene)-1H-pyrazole-5-carbohydrazide], the IC50 worked out at 40.1 µM.
To `COc1ccc(O)c(/C=N/NC(=O)c2ccc(F)cc2O)c1` [Compound 67, 4-fluoro-2-hydroxy-N′-(2-hydroxy-5-methoxy-benzylidene)benzohydrazide] belongs 8.3 µM.
The value for `COc1cccc(O)c1/C=N/NC(=O)c1ccccc1O` [Compound 55, 2-hydroxy-N′-(2-hydroxy-6-methoxy-benzylidene)benzohydrazide] was 5.3 µM; that for `COc1ccc(O)c(/C=N/NC(=O)c2ccccc2O)c1` [Compound 83, 2-hydroxy-N′-(2-hydroxy-5-methoxy-benzylidene)benzohydrazide] was 15.4 µM.
As for `Cc1cccc(/C=N/NC(=O)c2ccccc2O)c1O` [Compound 96, 2-hydroxy-N′-(2-hydroxy-3-methylbenzylidene)benzohydrazide], the IC50 is 28.6 µM.
As to `COc1ccc(O)c(/C=N/NC(=O)c2cccc3cccc(O)c23)c1` [Compound 105, 8-hydroxy-N′-(2-hydroxy-5-methoxybenzylidene)-1-naphthohydrazide], it took 36.5 µM to reach half-maximal inhibition (IC50).
To `COc1ccc(O)c(/C=N/NC(=O)c2ccccc2N)c1` [Compound 110, 2-amino-N′-(2-hydroxy-5-methoxybenzylidene)benzohydrazide] belongs 42.3 µM.
To `Cc1ccc(O)c(/C=N/NC(=O)c2ccccc2O)c1` [Compound 68, 2-hydroxy-N′-(2-hydroxy-5-methyl-benzylidene)benzohydrazide] belongs 9.2 µM; to `CN1CCN(C(=O)C/C(=N/NC(=O)c2ccccc2O)C(F)(F)F)CC1` [Compound 6, 2-hydroxy-N′-(1,1,1-trifluoro-4-(4-methylpiperazin-1-yl)-4-oxobutan-2-ylidene) benzohydrazide], 7.1 µM; to `O=C(N/N=C/c1ccc(O)cc1O)c1ccccc1O` [Compound 90, N′-(2,4-dihydroxybenzylidene)-2-hydroxy-benzohydrazide], 21.4 µM.
The value for `O=C(C/C(=N\NC(=O)c1sc2cc(F)ccc2c1Cl)C(F)(F)F)c1ccco1` [Compound 31, 3-chloro-6-fluoro-N′-(1,1,1-trifluoro-4-(furan-2-yl)-4-oxobulan-2-ylidene)benzo[b]thiophene-2-carbohydrazide] was 30.2 µM; that for `O=C(C/C(=N/NC(=O)c1sc2cc(F)ccc2c1Cl)C(F)(F)F)c1ccc(Cl)s1` [Compound 23, 3-chloro-N′-(4-(5-chlorothiophen-2-yl)-1,1,1-trifluoro-4-oxobulan-2-ylidene)-6-fluorobenzo[b]thiophene-2-carbohydrazide] was 16 µM.
The compound `COc1ccc(O)c(/C=N/NC(=O)c2cccc3cc[nH]c23)c1` [Compound 58, N′-(2-hydroxy-5-methoxy-benzylidene)-1H-indole-7-carbohydrazide] returned an IC50 of 6.4 µM. This IC50 is about 2.5-fold lower than that of the compound before.
`O=C(N/N=C/c1cc(Cl)ccc1NS(=O)(=O)c1ccc(F)cc1F)c1ccccc1O` [Compound 114, N-(4-chloro-2-((2-(2-hydroxybenzoyl)hydrazono)methyl)phenyl)-2,4-difluorobenzenesulfonamide] returned an IC50 of 46.7 µM. Against the preceding compound, the IC50 is about 7.3-fold higher.
Take `O=C(N/N=C/c1ccc(N2CCOCC2)cc1O)c1ccccc1O` [Compound 87, 2-hydroxy-N′-(2-hydroxy-4-morpholino-benzylidene)-benzohydrazide]: the IC50 came out at 18.3 µM.
Consider `O=C(C/C(=N/NC(=O)c1c(F)cccc1F)C(F)(F)F)c1cccs1` [Compound 35, 2,6-difluoro-N′-(1,1,1-trifluoro-4-oxo-4-(thiophen-2-yl)butan-2-ylidene)benzohydrazide], for which inhibition was half-maximal at 41.2 µM (IC50). Against the preceding compound, the IC50 is about 2.3-fold higher.
`C/C(CC(N)=O)=N\NC(=O)c1ccccc1O` [Compound 32, 3-(2-(2-hydroxybenzoyl)hydrazono)butanamide] had an IC50 of 35 µM.
